From US20230310352A1, “NOVEL COMPOSITIONS AND METHODS FOR THE TREATMENT OF LUNG FIBROSIS” (LAURENT PHARMACEUTICALS INC., priority 2020, published 2023) come the findings set out here.

Assay [1] relates to human lung microtissues. Kind of assay: Contractile force of TGF-β1 treated 3D lung microtissues (micropillar deflection). The format is cell-based. The note with it: for contractile force, reduction vs TGF-β1 only treated condition, percentage change: Day 6. The text has this:
The lung microtissue chip system used is based on bio-MEMS technology that can assemble 3D cell-populated submillimeter microtissues in arrays of polydimethylsiloxane (PDMS) microwells. In each microwell, human lung fibroblasts or epithelial cells spontaneously contract and assemble the matrix proteins, such as collagen, into microtissues that anchor on top of an array of micropillars. The flexible micropillars serve as in situ force sensors that can report the contractile force generated by the tissue.
The effect of fenretinide on the inhibition of microtissue contractile force in a preventative treatment regimen was also measured. Increased contractile force is one of the main biomechanical features associated with fibrosis progression. The spontaneous contraction force generated by individual microtissues was determined from the deflection of micropillars based on cantilever bending theory. Micropillar deflection was measured using phase contrast microscopy, by comparing the deflected position of the centroid of each pillar top to the centroid of its base. Microtissue contraction force was measured for the same batch of samples on a daily basis for each pharmacological condition. The micropillar spring constant was determined based on the actual geometry of the micropillar and the elastic modulus of the PDMS. […] In contrast, the force developed by untreated samples plateaued after 1 day at around 80 μN. […] The 4 μM fenretinide dose reduced the contractile force by Day 6 to around 70 μN, a reduction of about 38% as compared to TGF-β1 treated condition.
The effect of fenretinide 4 μM dose on the inhibition of microtissue contractile force was tested in a therapeutic treatment regimen. Fibrosis was first allowed to progress for three days under the induction of TGF-β1 (5 ng/ml) and fenretinide was then added from day 3 to day 6 to model a therapeutic treatment. […] TGF-β1 present in media for 3 days and absent for following 3 days (mean±SD, n=8). However, on day 6 as compared to day 3, fenretinide at 2 μM reduced the tissue contractility by 10%, 4 μM fenretinide by 15% and the combination of 2 μM fenretinide and 1.6 mM pirfenidone by 26%.

The test system of assay [2] is human lung microtissues. Kind of assay: Immunostaining of fibrotic markers (α-SMA, pro-collagen type 1) in TGF-β1 fibrosis-induced 3D lung microtissues. Type of assay: cell-based. The text has this:
To confirm the findings of the NHLF cells, the effects of fenretinide administration was observed on a newly developed in vitro model arrays of 3D microtissues that are suspended over multiple flexible micropillars. Progression of lung fibrosis is characterized by stiffening of the membranous tissue that makes up the alveolar air sacs, caused by the accumulation of highly contractile and collagen-producing myofibroblasts. To model the physio-pathological characteristics of lung fibrosis in vitro, different experimental systems have been developed. Planar 2D culture-based assays offer multiparameter readout of fibrotic cellular markers, but they have very limited capacity to measure or reproduce tissue mechanics. In order to recapitulate dynamic changes in tissue mechanics during fibrogenesis, a newly validated membranous human lung microtissues array was used, that models key biomechanical events occurred during lung fibrogenesis, including progressive stiffening and contraction of alveolar tissue, decline in alveolar tissue compliance, and traction force-induced bronchial dilation. This new 3D array of membranous lung microtissues model of lung fibrosis had been validated using two FDA-approved antifibrosis drugs, pirfenidone and nintedanib. This model was further extended to larger lung tissue arrays, to mimic the traction on alveoli as a model of bronchiectasis. (Asmani M. et al, 2018, Nature Com, 9:2066)
The lung microtissue chip system used is based on bio-MEMS technology that can assemble 3D cell-populated submillimeter microtissues in arrays of polydimethylsiloxane (PDMS) microwells. In each microwell, human lung fibroblasts or epithelial cells spontaneously contract and assemble the matrix proteins, such as collagen, into microtissues that anchor on top of an array of micropillars. The flexible micropillars serve as in situ force sensors that can report the contractile force generated by the tissue. […]
These observations are further described in Table 1, which presents fenretinide induced reduction of alpha smooth muscle actin (α-SMA) and pro-collagen expression and contractile forces induced by TGF-β1 in lung microtissue in preventative and therapeutic treatment measured as a percentage.

Where [3] appears, read: therapeutic treatment, added day 3 to day 6, 2 μM.
Setting [4] is: therapeutic treatment, added day 3 to day 6, 4 μM.
Where [5] appears, read: preventative treatment, 2 μM, 6 days.
The mark [6] stands for this setting: preventative treatment, 4 μM, 6 days.
The mark [7] stands for this setting: preventative, co-administered with TGF-β1 5 ng/ml for 6 days, 2 μM and 4 μM.

The term inhibition denotes the share of the control response that was lost under treatment. Take `CC1=C(/C=C/C(C)=C/C=C/C(C)=C/C(=O)Nc2ccc(O)cc2)C(C)(C)CCC1` [fenretinide, 4-hydroxyphenyl retinamide]: the inhibition at 4 µM with human lung microtissues [1] (Homo sapiens, therapeutic treatment, 4 μM, read-out: inhibition of contractile force as compared to TGF-β1 only treated condition (positive control)) came to 57%. Moreover, the “TGF-β1-induced increase in contractile force” value with human lung microtissues [1] (preventative treatment, 2 μM and 4 μM) was “inhibit TGF-131-induced increase in contractile force in a dose-dependent manner”. The microtissue contractile force in the assay on human lung microtissues [1] (preventative treatment, 2 μM, 6-day measurement (TGF-β1 only around 130 μN, untreated around 80 μN)) is reported as 80-85 μN; in the assay with human lung microtissues [1] (preventative treatment, 4 μM, Day 6 (TGF-β1 only around 130 μN, untreated around 80 μN)), “around 70 μN”. For the same molecule, the “contractile force, reduction vs TGF-β1 only treated condition, percentage change” value in the assay on human lung microtissues [1] (preventative treatment, 2 μM) is listed as “about 28%”; with human lung microtissues [1] (preventative treatment, 2 μM, listed as Fenret), 28.0%; in the assay with human lung microtissues [1] (preventative treatment, 4 μM), “about 38%”; in the assay with human lung microtissues [1] (preventative treatment, 4 μM, listed as Fenret), 38.0%. For the same molecule, the “reduction of tissue contractility on day 6 as compared to day 3” value is given as 10% in the assay on human lung microtissues [1] (therapeutic treatment, 2 μM) and 15% in the assay with human lung microtissues [1] (therapeutic treatment, 4 μM). The “contractile force, reduction vs TGF-β1 +3/−3 group on day 6, percentage change” value in the assay on human lung microtissues [1] (setting [3]) came to 34%; in the assay on human lung microtissues [1] (therapeutic treatment, added day 3 to day 6, 2 μM, listed as Fenret), 34.0%; in the assay on human lung microtissues [1] (setting [4]), 34%; in the assay on human lung microtissues [1] (therapeutic treatment, added day 3 to day 6, 4 μM, listed as Fenret) it was 34.0%. Further, the “pro-collagen, reduction of expression induced by TGF-β1, percentage change” value in the assay on human lung microtissues [2] (setting [5]) is 88.0%; with human lung microtissues [2] (setting [6]), 81.0%; with human lung microtissues [2] (setting [3]), 39.0%; in the assay on human lung microtissues [2] (setting [4]), 58.0%. The “α-SMA, reduction of expression induced by TGF-β1, percentage change” value in the assay with human lung microtissues [2] (setting [5]) amounted to 45.0%; in the assay with human lung microtissues [2] (setting [6]) it was 37.0%; in the assay with human lung microtissues [2] (setting [3]), 56.0%; in the assay with human lung microtissues [2] (setting [4]) it was 72.0%. The “expression of pro-collagen type 1 (fluorescent intensity)” value in the assay with human lung microtissues [2] (setting [7]) was “increasingly inhibited by increasing fenretinide concentrations”. The “expression of α-SMA (fluorescent intensity)” value in the assay on human lung microtissues [2] (setting [7]) is on record as “increasingly inhibited by increasing fenretinide concentrations”.
